Results taken from patent publication US6632668B2, “Monolayer sheet structure of primary hepatocytes obtained using a protein-phosphorylation inhibitor” (Japan as represented by the Secretary of Agency of …, priority 2000, dated 2003).

How the values were obtained:
[1] = tested on: primary hepatocytes; test: Monolayer formation of primary hepatocytes on collagen-coated plates, phase contrast microscope observation; format: cell-based, rat; details: 50 nM staurosporine, 4 h + 20 h standing culture
Experimental: In order to isolate primary hepatocytes, rat livers were used and primary hepatocytes were isolated from the rat livers by ordinary methods, that was, by collagenase perfusion followed method and four subsequent low-speed centrifuge isolation. The hepatocytes were suspended in an animal cell culture medium (Williams' E medium) containing 10 nM Dexamethasone and 10% fetal bovine serum, and seeded at a cell concentration of 10×10^4 cell/cm^2 on 6-well cell culture plastic plates coated with type I collagen. For the samples to be treated, staurosporine was added to the medium to a final concentration of 50 nM. Next, they were subjected to standing culture for 4 hours at 37° C. in a CO2 incubator in the presence of 5% (v/v) CO2, and the medium was replaced with Williams' E medium containing 10 nM insulin, 10 nM dexamethasone and 0.7 μg/ml aprotinin. For the samples to be treated, staurosporine was again added to the medium to a final concentration of 50 nM. Finally, after the standing culture for 20 hours, the condition of the cells was observed through a phase contrast microscope.
The results in FIG. 1 show clearly that in the case of the hepatocytes not treated with staurosporine, cell aggregates are formed, which comprises intermittently linked patch-like discontinuous monolayers of one to tens of cells.

[2] = tested on: primary rat hepatocytes monolayer; test: Dye permeation assay using transwell filters (bromphenol-blue, OD 655 nm); format: cell-based; details: staurosporine-treated monolayer on transwell filters
Experimental: In parallel with Example 1 above, primary rat hepatocytes were seeded on transwell filters (3-micron pore polytetrafluoroethylene coated with type I collagen) suitable to 24-well cell culture plates, and differences in the tightness of the cell monolayer structure produced by staurosporine treatment were measured by a dye permeation assay.
In the dye permeation assay using transwell filters shown in A of FIG. 2, primary hepatocytes were seeded on transwell filters installed in wells on 24-well cell culture plates, and after the monolayer thereof was formed, 20 μl of dye (0.25% bromphenol-blue dye) was added to the upper liquid layer (medium) on the filter. 50 μl samples were then taken with the passage of time from the lower liquid layer (medium) on the filter at a constant temperature of 37° C., and absorbancy thereof (OD 655 nm) was measured.
In the results of B of FIG. 2, courses with the passage of time of dye permeation through hepatocytes layers formed by conventional methods on transwell filters are indicated by the white circles ◯, while courses of dye permeation through hepatocytes layers formed by the methods of this invention are indicated by black circles ●. […]

CNC1CC2OC(C)(C1OC)n1c3ccccc3c3c4c(c5c6ccccc6n2c5c31)C(=O)NC4 (stereo not drawn) [staurosporine, [9S-(9a,10b,11b,13a)]-9,13-epoxy-2,3,10,11,12,13-hexahydro-10-methoxy-9-methyl-11-(methylamino)-1H,9H-diindolo[1,2,3-gh:3′,2′,1′-1m]pyrrolo[3,4-j][1,7]benzodiazonin-1-one]
cell aggregates formed (monolayer structure) ([1]; phase contrast microscope x200): a confluent continuous monolayer sheet of closely adjoining cells | adhesion (attachment) and extension (spreading) of hepatocytes on culture substrate ([1]; type I collagen coated plates, versus untreated hepatocytes): improved | permeation of dye through hepatocytes monolayer ([2]; 0.25% bromphenol-blue, 37° C., versus untreated cell layers): much less permeation of dye than that of the untreated cell layers | tightness between cells ([2]; concluded from dye permeation): greatly enhanced
